Where two headings read alike, the source gives them in different places.
Columns and labels:
ARID1A-KO HCT116 cells = experiment: Drug library screen, cell viability (CellTiter-Glo); format: cell-based, human; settings: Homo sapiens, HCT-116, 120 h, read-out: Cell viability, KO
Procedure, shortened: (§1)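 Luminescent ATP read-out (CellTiter-Glo) at day 5, normalised to solvent (DMSO) controls, in paired HCT116 lines, ARID1A knockout versus wild type. Candidates selected where KO cells fell below 40% viability and WT cells stayed above 80%.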

[1] = as above; format: cell-based, human; settings: human
Procedure, shortened: as §1

[2] = HCT116 ARID1A-WT, 10 μM for 5 days, relative to cells treated with solvent (DMSO), read-out: Cell viability, WT
[3] = HCT116 ARID1A-KO, 10 μM for 5 days, relative to cells treated with solvent (DMSO)

For `CO[C@@H]1C[C@@H](C[C@H]2CC[C@H](C)[C@H]([C@@H](C)C(=O)O)O2)O[C@]2(O[C@](C)([C@H]3CC[C@@](C)([C@@H]4O[C@@H]([C@H]5O[C@@](O)(CO)[C@H](C)C[C@@H]5C)C[C@@H]4C)O3)C[C@H]2C)[C@@H]1C` [Nigericin], the viability at 10 µM (ARID1A-KO HCT116 cells) was 4.01% and the viability at 5 days, 10 μM [1] was 3.47%.

Compound `COC(=O)Nc1nc2ccc(C(=O)c3cccs3)cc2[nH]1` [Nocodazole] has a viability at 10 µM (ARID1A-KO HCT116 cells) of 7.15% and a viability at 5 days, 10 μM [1, 2] of 6.51%.

With `CC(Cc1ccc(O)c(O)c1)C(C)Cc1ccc(O)c(O)c1` (stereo not shown) [Nordihydroguaiaretic acid (NDGA), Nordihydroguaiaretic acid] the viability at 10 µM (ARID1A-KO HCT116 cells; [3]) was 112% and the viability at 5 days, 10 μM [1, 2] was 101%.

Compound `C[C@]1(O)C[C@@H](c2nc(-c3ccc4ccc(-c5ccccc5)nc4c3)c3c(N)nccn32)C1` [OSI-906] has a viability at 10 µM (ARID1A-KO HCT116 cells; [3]) of 79.1% and a viability at 5 days, 10 μM [1, 2] of 59.1%.

In the case of `NCC(=O)Nc1ccc(-n2nc(C(F)(F)F)cc2-c2ccc3c(ccc4ccccc43)c2)cc1` [OSU-03012], the viability at 10 µM (ARID1A-KO HCT116 cells; [3]) is reported as 105% and the viability at 5 days, 10 μM [1, 2] is reported as 91.9%.

`O=C(c1cc(Cc2n[nH]c(=O)c3ccccc23)ccc1F)N1CCN(C(=O)C2CC2)CC1` [Olaparib] showed a viability at 10 µM (ARID1A-KO HCT116 cells; [3]) of 19.5% and a viability at 5 days, 10 μM [1, 2] of 20.9%.

Compound `CC[C@H]1/C=C/C=C/C[C@@H](C)[C@H](O)[C@@](C)(O)C(=O)[C@@H](C)[C@H](O)[C@@H](C)C(=O)[C@@H](C)[C@H](O)[C@@H](C)/C=C/C(=O)O[C@@H]2[C@H](C)[C@H](CC1)O[C@]1(CC[C@H](C)[C@H](C[C@@H](C)O)O1)[C@H]2C` [Oligomycin] has a viability at 10 µM (ARID1A-KO HCT116 cells; [3]) of 21.7% and a viability at 5 days, 10 μM [1, 2] of 13.6%.

Compound `Cn1cnc2c(NCc3ccccc3)nc(NCCO)nc21` [Olomoucine] has a viability at 10 µM (ARID1A-KO HCT116 cells) of 122% and a viability at 5 days, 10 μM [1, 2] of 173%.

Work on `C[C@@H]1O[C@@H](O[C@H]2C[C@@H](O)[C@]3(CO)[C@H]4[C@H](O)C[C@]5(C)[C@@H](C6=CC(=O)OC6)CC[C@]5(O)[C@@H]4CC[C@]3(O)C2)[C@H](O)[C@H](O)[C@H]1O` [Ouabain] yielded a viability at 10 µM (ARID1A-KO HCT116 cells; [3]) of 5.12% and a viability [1, 2] of 4.81%.

Work on `CC(=O)O[C@H]1C(=O)[C@@]2(C)[C@H]([C@H](OC(=O)c3ccccc3)[C@]3(O)C[C@H](OC(=O)[C@H](O)[C@@H](NC(=O)c4ccccc4)c4ccccc4)C(C)=C1C3(C)C)[C@]1(OC(C)=O)CO[C@@H]1C[C@@H]2O` [Paclitaxel] yielded a viability at 10 µM (ARID1A-KO HCT116 cells; [3]) of 6.42% and a viability at 5 days, 10 μM [1, 2] of 4.91%.

`NNCCc1ccccc1` [Phenelzine] showed a viability at 10 µM (ARID1A-KO HCT116 cells; [3]) of 119% and a viability at 5 days, 10 μM [1, 2] of 101%.

Compound `C[C@@H]1C[C@H]2O[C@@H]2/C=C\C=C\C(=O)Cc2c(Cl)c(O)cc(O)c2C(=O)O1` [Radicicol] has a viability at 10 µM (ARID1A-KO HCT116 cells; [3]) of 5.65% and a viability at 5 days, 10 μM [1, 2] of 7.12%.

In the case of `CO[C@H]1C[C@@H]2CC[C@@H](C)[C@@](O)(O2)C(=O)C(=O)N2CCCC[C@H]2C(=O)O[C@H]([C@H](C)C[C@@H]2CC[C@@H](O)[C@H](OC)C2)CC(=O)[C@H](C)/C=C(\C)[C@@H](O)[C@@H](OC)C(=O)[C@H](C)C[C@H](C)/C=C/C=C/C=C/1C` [Rapamycin], the viability at 10 µM (ARID1A-KO HCT116 cells; [3]) is reported as 125% and the viability at 5 days, 10 μM [1, 2] is reported as 169%.

With `C=C(C)[C@H]1Cc2c(ccc3c2O[C@@H]2COc4cc(OC)c(OC)cc4[C@@H]2C3=O)O1` [Rotenone] the viability at 10 µM (ARID1A-KO HCT116 cells; [3]) was 6.99% and the viability [1, 2] was 5.52%.

`N#CC[C@H](C1CCCC1)n1cc(-c2ncnc3[nH]ccc23)cn1` [Ruxolitinib] showed a viability at 10 µM (ARID1A-KO HCT116 cells; [3]) of 86.1% and a viability at 5 days, 10 μM [1, 2] of 58.1%.

`Oc1c2ccccc2c2c3c(cccc13)N=N2` [SP600125] gave a viability at 10 µM (ARID1A-KO HCT116 cells; [3]) of 105% and a viability at 5 days, 10 μM [1, 2] of 172%.

Compound `C[n+]1cc2c3c(ccc2c2ccc4cc5c(cc4c21)OCO5)OCO3` [Sanguinarine] has a viability at 10 µM (ARID1A-KO HCT116 cells; [3]) of 2.09% and a viability [1, 2] of 1.83%.

`O=C(CCCCCN1C(=O)c2cccc3cccc(c23)C1=O)NO` [Scriptaid] showed a viability at 10 µM (ARID1A-KO HCT116 cells; [3]) of 5.74% and a viability at 5 days, 10 μM [1, 2] of 6.95%.

`O=C([O-])c1ccccc1O.[Na+]` [Sodium salicylate] gave a viability at 10 µM (ARID1A-KO HCT116 cells) of 125% and a viability [1] of 177%.

In the case of `CN[C@@H]1C[C@H]2O[C@@](C)([C@@H]1OC)n1c3ccccc3c3c4c(c5c6ccccc6n2c5c31)C(=O)NC4` [Staurosporine], the viability at 10 µM (ARID1A-KO HCT116 cells; [3]) is reported as 4.14% and the viability [1, 2] is reported as 5.22%.

— patent US20220087987A1, “A METHOD FOR TREATING SWI/SNF COMPLEX-DEFICIENT CANCERS COMPRISING GLUTATHIONE (GSH) METABOLIC PATHWAY INHIBITOR” (National Cancer Center, priority 2018, published 2022)
